# Data as given in ChEMBL document CHEMBL1145498, “A systematic interaction map of validated kinase inhibitors with Ser/Thr kinases” (Proc Natl Acad Sci U S A, 2007).
# How the values were obtained:
# [1] = biological target: Calcium/calmodulin-dependent protein kinase type 1D (Homo sapiens) (UniProt Q8IU85)
# [2] = biological target: Calcium/calmodulin-dependent protein kinase type 1G (Homo sapiens) (UniProt Q96NX5)
# [3] = biological target: Calcium/calmodulin-dependent protein kinase type II subunit alpha (Homo sapiens) (UniProt Q9UQM7)
# [4] = biological target: Calcium/calmodulin-dependent protein kinase type II subunit delta (Homo sapiens) (UniProt Q13557)
# [5] = biological target: Calcium/calmodulin-dependent protein kinase kinase 2 (Homo sapiens, UniProt Q96RR4)
# [6] = biological target: Cyclin-dependent kinase 6 (Homo sapiens) (UniProt Q00534)
# [7] = biological target: Serine/threonine-protein kinase Chk2 (Homo sapiens, UniProt O96017)
# [8] = biological target: Dual specificity protein kinase CLK2 (Homo sapiens) (UniProt P49760)
# [9] = biological target: Casein kinase I isoform gamma-1 (Homo sapiens) (UniProt Q9HCP0)
# [10] = biological target: T1, Myotonin-protein kinase (Homo sapiens) (UniProt Q09013)
# T1 sequence (whole entry): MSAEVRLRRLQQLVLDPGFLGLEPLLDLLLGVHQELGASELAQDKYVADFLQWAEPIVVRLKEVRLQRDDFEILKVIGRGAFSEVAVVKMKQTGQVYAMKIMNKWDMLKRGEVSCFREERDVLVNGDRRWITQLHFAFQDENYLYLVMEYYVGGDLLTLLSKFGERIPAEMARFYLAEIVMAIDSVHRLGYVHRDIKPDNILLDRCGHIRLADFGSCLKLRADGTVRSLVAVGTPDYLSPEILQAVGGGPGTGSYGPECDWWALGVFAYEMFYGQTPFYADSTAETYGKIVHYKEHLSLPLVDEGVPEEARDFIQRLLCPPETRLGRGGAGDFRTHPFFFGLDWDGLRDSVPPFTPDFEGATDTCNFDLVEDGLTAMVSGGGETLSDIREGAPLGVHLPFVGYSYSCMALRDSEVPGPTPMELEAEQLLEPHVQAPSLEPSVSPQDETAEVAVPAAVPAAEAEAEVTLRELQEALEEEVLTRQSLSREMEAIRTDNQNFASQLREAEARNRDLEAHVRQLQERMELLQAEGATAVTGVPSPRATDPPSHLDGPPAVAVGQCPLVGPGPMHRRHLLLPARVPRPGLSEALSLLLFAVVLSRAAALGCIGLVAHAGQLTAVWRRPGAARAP
# [11] = biological target: Glycogen synthase kinase-3 beta (Homo sapiens, UniProt P49841)
# [12] = biological target: Tyrosine-protein kinase JAK1 (Homo sapiens) (UniProt P23458)
# [13] = biological target: Dual specificity mitogen-activated protein kinase kinase 2 (Homo sapiens, UniProt P36507)
# [14] = biological target: T2, Serine/threonine-protein kinase Nek2 (Homo sapiens) (UniProt P51955)
# T2 sequence (whole entry): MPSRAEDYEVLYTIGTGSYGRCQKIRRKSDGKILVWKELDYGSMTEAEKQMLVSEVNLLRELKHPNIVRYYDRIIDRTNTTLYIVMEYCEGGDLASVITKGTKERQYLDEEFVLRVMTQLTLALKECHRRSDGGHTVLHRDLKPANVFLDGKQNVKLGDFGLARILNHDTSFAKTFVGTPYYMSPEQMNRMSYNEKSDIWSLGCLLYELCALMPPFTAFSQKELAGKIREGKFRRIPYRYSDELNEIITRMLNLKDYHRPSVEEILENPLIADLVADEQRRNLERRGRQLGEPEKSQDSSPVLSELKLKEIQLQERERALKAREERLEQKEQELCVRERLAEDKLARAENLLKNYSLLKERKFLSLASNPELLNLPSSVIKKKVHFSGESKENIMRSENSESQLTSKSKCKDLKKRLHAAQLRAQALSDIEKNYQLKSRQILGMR
# [15] = biological target: Cyclin-dependent kinase 16 (Homo sapiens) (UniProt Q00536)
# [16] = biological target: Serine/threonine-protein kinase pim-1 (Homo sapiens) (UniProt P11309)
# [17] = biological target: Serine/threonine-protein kinase pim-2 (Homo sapiens, UniProt Q9P1W9)
# [18] = biological target: Serine/threonine-protein kinase PLK1 (Homo sapiens) (UniProt P53350)
# [19] = biological target: Ribosomal protein S6 kinase alpha-3 (Homo sapiens) (UniProt P51812)
# [20] = biological target: STE20-like serine/threonine-protein kinase (Homo sapiens) (UniProt Q9H2G2)
# [21] = biological target: Serine/threonine-protein kinase 38 (Homo sapiens) (UniProt Q15208)
# [22] = biological target: Serine/threonine-protein kinase 26 (Homo sapiens) (UniProt Q9P289)
# [23] = biological target: T3, Lymphokine-activated killer T-cell-originated protein kinase (Homo sapiens) (UniProt Q96KB5)
# T3 sequence (whole entry): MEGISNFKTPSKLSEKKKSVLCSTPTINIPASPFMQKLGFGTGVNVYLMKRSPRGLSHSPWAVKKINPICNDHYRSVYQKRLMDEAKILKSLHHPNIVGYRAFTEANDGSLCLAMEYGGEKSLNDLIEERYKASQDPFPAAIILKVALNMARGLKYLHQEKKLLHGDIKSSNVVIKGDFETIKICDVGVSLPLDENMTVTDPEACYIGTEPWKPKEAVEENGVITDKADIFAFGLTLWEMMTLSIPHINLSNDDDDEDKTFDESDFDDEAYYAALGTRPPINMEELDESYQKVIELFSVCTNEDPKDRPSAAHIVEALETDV
# [24] = biological target: Dual specificity protein kinase CLK1 (Homo sapiens) (UniProt P49759)
# [25] = biological target: Dual specificity protein kinase CLK3 (Homo sapiens) (UniProt P49761)
# [26] = biological target: Casein kinase I isoform gamma-2 (Homo sapiens) (UniProt P78368)
# Dual specificity protein kinase CLK2 (Homo sapiens), sequence (P49760 whole entry, looked up, canonical isoform): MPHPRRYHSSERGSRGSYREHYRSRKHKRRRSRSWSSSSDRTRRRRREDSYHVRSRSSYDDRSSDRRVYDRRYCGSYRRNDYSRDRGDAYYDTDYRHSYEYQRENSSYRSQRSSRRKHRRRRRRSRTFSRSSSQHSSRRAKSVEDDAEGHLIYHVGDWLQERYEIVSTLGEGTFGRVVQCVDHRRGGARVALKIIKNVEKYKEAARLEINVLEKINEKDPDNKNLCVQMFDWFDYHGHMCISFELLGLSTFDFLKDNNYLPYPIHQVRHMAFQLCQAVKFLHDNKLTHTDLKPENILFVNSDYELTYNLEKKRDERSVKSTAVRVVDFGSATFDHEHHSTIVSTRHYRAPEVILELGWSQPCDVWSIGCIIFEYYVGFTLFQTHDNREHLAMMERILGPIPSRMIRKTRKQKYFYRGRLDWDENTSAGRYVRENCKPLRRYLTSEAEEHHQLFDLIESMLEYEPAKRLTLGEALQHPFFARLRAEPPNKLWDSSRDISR
# Serine/threonine-protein kinase PLK1 (Homo sapiens), sequence (P53350 whole entry): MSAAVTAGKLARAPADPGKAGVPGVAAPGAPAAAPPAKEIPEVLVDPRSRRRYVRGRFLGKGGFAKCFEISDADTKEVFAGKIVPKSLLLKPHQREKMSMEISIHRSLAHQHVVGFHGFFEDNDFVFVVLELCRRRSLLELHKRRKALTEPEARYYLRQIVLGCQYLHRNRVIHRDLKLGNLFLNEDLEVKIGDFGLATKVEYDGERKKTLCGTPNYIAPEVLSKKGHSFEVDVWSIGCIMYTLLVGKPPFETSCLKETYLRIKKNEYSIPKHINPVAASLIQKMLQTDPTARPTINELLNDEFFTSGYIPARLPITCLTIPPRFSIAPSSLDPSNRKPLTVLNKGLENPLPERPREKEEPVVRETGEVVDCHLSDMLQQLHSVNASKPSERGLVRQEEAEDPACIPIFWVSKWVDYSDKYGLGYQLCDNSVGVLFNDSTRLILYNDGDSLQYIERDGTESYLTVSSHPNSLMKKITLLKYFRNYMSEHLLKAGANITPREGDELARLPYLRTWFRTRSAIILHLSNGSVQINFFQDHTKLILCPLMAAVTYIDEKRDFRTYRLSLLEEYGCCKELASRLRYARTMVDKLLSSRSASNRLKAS
# Calcium/calmodulin-dependent protein kinase type 1G (Homo sapiens), sequence (Q96NX5 whole entry): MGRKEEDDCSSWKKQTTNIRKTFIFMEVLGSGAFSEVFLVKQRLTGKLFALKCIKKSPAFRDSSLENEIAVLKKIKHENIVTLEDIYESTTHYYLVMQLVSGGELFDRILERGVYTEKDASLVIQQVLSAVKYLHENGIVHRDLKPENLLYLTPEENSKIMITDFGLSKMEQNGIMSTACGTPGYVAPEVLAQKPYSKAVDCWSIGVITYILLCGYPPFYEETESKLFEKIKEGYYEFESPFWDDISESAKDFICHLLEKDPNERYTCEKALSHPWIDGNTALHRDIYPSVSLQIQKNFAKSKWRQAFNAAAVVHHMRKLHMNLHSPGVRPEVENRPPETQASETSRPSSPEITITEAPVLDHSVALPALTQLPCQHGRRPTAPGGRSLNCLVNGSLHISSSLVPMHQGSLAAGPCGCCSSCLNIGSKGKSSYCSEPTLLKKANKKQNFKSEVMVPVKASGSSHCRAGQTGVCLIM
# Cyclin-dependent kinase 16 (Homo sapiens), sequence (Q00536 whole entry): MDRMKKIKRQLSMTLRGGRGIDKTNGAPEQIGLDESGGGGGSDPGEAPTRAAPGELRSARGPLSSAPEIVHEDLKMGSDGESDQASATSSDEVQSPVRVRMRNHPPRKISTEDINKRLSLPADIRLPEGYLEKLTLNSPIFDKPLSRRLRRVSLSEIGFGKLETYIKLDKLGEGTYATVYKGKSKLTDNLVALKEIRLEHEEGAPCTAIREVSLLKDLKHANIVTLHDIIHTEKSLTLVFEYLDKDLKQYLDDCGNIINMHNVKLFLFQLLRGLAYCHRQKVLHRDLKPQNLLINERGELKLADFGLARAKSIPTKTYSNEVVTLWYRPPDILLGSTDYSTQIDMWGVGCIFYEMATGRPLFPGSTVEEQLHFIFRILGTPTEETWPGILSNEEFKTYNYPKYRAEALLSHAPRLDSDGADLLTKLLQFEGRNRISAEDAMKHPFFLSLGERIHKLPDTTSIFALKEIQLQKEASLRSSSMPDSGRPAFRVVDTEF
# Tyrosine-protein kinase JAK1 (Homo sapiens), sequence (P23458 whole entry): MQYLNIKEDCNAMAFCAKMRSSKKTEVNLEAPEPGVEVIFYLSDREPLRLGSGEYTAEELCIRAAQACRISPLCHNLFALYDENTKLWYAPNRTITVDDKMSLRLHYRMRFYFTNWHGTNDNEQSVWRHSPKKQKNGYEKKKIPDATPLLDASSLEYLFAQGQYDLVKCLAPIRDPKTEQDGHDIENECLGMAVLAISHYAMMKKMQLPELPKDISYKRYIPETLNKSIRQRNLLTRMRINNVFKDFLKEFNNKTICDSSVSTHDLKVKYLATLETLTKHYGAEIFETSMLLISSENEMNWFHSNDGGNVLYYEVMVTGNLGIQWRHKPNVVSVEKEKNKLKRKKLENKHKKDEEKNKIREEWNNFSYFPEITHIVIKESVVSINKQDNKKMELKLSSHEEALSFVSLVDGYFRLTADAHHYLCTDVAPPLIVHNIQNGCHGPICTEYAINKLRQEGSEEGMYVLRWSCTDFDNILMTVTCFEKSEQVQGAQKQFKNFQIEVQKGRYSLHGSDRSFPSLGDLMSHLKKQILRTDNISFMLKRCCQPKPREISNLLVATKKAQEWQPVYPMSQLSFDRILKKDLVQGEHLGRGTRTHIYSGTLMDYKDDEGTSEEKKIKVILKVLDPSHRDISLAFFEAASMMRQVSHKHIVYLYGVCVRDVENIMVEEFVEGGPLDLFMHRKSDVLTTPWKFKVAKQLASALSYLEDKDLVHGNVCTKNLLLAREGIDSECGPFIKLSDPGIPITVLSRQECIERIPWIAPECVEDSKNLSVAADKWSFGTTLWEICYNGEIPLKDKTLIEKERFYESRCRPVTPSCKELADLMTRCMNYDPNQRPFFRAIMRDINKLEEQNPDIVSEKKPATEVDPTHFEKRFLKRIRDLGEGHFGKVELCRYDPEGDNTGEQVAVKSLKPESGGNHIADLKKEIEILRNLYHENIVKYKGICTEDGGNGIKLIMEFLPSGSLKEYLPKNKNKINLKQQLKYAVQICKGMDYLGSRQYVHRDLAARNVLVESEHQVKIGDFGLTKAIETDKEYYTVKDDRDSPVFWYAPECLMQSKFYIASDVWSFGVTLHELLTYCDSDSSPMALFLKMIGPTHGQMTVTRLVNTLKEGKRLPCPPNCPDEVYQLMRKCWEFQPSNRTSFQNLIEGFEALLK
# Serine/threonine-protein kinase Chk2, sequence (O96017 whole entry): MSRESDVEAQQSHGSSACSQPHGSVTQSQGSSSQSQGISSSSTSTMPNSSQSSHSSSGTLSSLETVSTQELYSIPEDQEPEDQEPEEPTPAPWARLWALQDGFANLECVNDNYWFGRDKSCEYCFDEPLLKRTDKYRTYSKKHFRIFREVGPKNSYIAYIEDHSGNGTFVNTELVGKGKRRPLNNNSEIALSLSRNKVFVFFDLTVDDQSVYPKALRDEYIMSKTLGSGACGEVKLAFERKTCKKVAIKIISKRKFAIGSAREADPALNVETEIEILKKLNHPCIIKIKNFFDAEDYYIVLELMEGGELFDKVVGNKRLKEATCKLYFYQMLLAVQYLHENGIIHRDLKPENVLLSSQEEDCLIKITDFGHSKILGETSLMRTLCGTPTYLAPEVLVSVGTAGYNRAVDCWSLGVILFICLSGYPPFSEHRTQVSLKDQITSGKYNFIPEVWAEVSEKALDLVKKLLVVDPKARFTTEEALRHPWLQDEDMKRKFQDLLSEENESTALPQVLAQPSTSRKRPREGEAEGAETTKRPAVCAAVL
# Dual specificity protein kinase CLK3 (Homo sapiens), sequence (P49761 whole entry, looked up, canonical isoform): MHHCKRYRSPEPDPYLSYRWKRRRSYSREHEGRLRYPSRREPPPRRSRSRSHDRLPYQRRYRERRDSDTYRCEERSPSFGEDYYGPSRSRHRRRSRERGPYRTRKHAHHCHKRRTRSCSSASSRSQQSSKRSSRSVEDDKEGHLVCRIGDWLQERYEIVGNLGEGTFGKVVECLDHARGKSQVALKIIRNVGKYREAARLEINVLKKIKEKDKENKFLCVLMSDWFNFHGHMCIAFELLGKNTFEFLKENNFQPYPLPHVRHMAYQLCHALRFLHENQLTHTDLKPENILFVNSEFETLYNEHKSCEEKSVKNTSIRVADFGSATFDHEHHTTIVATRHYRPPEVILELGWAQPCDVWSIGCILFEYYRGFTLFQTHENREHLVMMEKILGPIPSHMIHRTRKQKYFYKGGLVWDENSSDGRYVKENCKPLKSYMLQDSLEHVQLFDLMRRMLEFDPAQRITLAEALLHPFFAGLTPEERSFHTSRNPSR
# Serine/threonine-protein kinase pim-2, sequence (Q9P1W9 whole entry, looked up): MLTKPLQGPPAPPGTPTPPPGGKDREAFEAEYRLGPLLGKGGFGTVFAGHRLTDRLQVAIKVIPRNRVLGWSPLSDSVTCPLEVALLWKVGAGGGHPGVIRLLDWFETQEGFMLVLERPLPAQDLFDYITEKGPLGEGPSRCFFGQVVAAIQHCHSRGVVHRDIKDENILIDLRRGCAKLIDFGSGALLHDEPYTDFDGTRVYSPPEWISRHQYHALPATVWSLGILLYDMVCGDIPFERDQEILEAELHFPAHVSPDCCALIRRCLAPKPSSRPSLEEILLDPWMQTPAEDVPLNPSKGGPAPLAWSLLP
# Cyclin-dependent kinase 6 (Homo sapiens), sequence (Q00534 whole entry): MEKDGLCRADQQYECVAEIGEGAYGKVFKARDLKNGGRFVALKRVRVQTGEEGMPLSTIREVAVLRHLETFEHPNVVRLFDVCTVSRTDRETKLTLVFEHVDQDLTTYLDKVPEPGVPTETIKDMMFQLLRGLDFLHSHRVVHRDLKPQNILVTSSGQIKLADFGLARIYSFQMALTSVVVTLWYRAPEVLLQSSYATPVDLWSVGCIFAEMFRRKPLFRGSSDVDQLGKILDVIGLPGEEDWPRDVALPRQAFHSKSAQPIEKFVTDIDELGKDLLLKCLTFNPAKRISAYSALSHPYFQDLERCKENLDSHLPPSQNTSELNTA
Structure (SMILES),ΔTm [1] [°C],ΔTm [2] [°C],ΔTm [3] [°C],ΔTm [4] [°C],ΔTm [5] [°C],ΔTm [6] [°C],ΔTm [7] [°C],ΔTm [8] [°C],ΔTm [9] [°C],ΔTm [10] [°C],ΔTm [11] [°C],ΔTm [12] [°C],ΔTm [13] [°C],ΔTm [14] [°C],ΔTm [17] [°C],ΔTm [18] [°C],ΔTm [19] [°C],ΔTm [20] [°C],ΔTm [21] [°C],ΔTm [22] [°C],also measured
CCN1/C(=C/C(C)=O)Sc2ccc(OC)cc21,0,-0.5,-0.1,-0.6,0.4,0.4,0.1,4.1,2.5,2.5,1.4,-0.4,0.5,0.8,3.1,0.3,-0.6,0.7,0.5,0.7,ΔTm [15]: -0.5 °C; ΔTm [16]: 6.3 °C; ΔTm [23]: 1.1 °C
CN(C)C[C@@H]1CCn2cc(c3ccccc32)C2=C(C(=O)NC2=O)c2cn(c3ccccc23)CCO1 [RUBOXISTAURIN],,0.1,3.1,,1.6,0.5,3.5,4.2,0.5,5.3,5.9,-0.5,0.1,1.5,2.1,-0.9,0.9,7,0,4.1,ΔTm [24]: 5.4 °C; ΔTm [25]: 0.3 °C; ΔTm [26]: 0.9 °C; ΔTm [23]: 0.9 °C
CN(C)CCCn1cc(C2=C(c3c[nH]c4ccccc34)C(=O)NC2=O)c2ccccc21 [GF-109203],1.1,0.6,2.4,1.1,2.6,0.4,7.1,4.1,1,3.9,8.7,1.5,0.1,0.7,5.2,1,0.8,6.8,0.3,1.7,ΔTm [24]: 6.3 °C; ΔTm [25]: 2.7 °C; ΔTm [26]: 0.5 °C; ΔTm [15]: 3 °C; ΔTm [23]: 0.2 °C
Cc1nc(N)sc1-c1ccnc(Nc2cccc([N+](=O)[O-])c2)n1,2.5,4.1,1.4,-0.4,3.6,4.3,9.7,7.9,3.9,7.6,2.1,4.8,2.7,2.2,8.1,4.6,10.7,10,0.6,0.4,ΔTm [24]: 7 °C; ΔTm [25]: 4 °C; ΔTm [26]: 5.1 °C; ΔTm [15]: 3.9 °C; ΔTm [16]: 1.1 °C
CC[C@H](CO)Nc1nc(NCc2ccccc2)c2ncn(C(C)C)c2n1 [SELICICLIB],0,0,,0.1,0.3,0.2,0,2.3,,-0.7,0.4,0.1,,0.7,0.3,1,1.4,0.2,0.3,0.3,ΔTm [24]: 2.1 °C; ΔTm [25]: 0.8 °C; ΔTm [16]: -1 °C; ΔTm [23]: 0.8 °C
Cc1ccc(NC2=CC(=O)c3sc(C)nc3C2=O)cc1,-1.6,-1.4,-0.7,0.1,-2.4,-1.7,-1.8,-1,-0.6,-2.4,0.4,-0.9,-2,-1.2,-0.6,-0.2,-0.9,-0.6,-1,-0.5,ΔTm [24]: -0.8 °C; ΔTm [25]: -0.5 °C; ΔTm [26]: 0 °C; ΔTm [15]: -0.9 °C; ΔTm [16]: -1.3 °C
CN(c1cccnc1)c1cc2c(Nc3ccc(F)c(Cl)c3)c(C#N)cnc2cn1,1.9,2.4,3.4,2.7,1.9,-0.6,5,4.3,1.4,5.3,6.3,0.4,2.1,0.7,10.7,0.7,1.7,4.2,0.3,0.7,ΔTm [24]: 4.9 °C; ΔTm [25]: 1.2 °C; ΔTm [26]: 0.4 °C; ΔTm [15]: 0.1 °C; ΔTm [16]: 0.1 °C
C[S+]([O-])c1ccc(-c2nc(-c3ccc(F)cc3)c(-c3ccncc3)[nH]2)cc1 (stereo unspecified) [SB-203580],-0.2,-0.2,0.3,-0.3,0,-0.1,-0.5,0.2,0.8,0.1,3.5,2.3,0.2,0.3,0,0.2,-0.2,,0.2,-0.4,ΔTm [24]: -0.3 °C; ΔTm [25]: -0.1 °C; ΔTm [26]: 0.7 °C; ΔTm [15]: -0.8 °C; ΔTm [16]: -2.1 °C; ΔTm [23]: 0.2 °C
O=C(Nc1cccc(Nc2cc(Nc3cccc(C(F)(F)F)c3)ncn2)c1)C1CC1,2.6,3.7,1.8,-2,1.7,0.1,2.4,0.9,1,4,1.1,1.7,1,2,2.3,0,2.6,3.2,1.5,0.8,ΔTm [24]: 1.9 °C; ΔTm [25]: 1.5 °C; ΔTm [26]: 2.3 °C; ΔTm [15]: 3.9 °C; ΔTm [16]: 1 °C
